Experimental data from patent publication US5593984A, “Cephalosporin derivatives” (Yuhan Corporation, priority 1992, dated 1997).
Converted amounts (≈) assume the structure as drawn.

Assays:
Assay type in all cases: cell-based
B. subtilis ATCC 6633 = experiment: MIC by agar dilution, B. subtilis ATCC 6633; details: Bacillus subtilis, ATCC6633, 17 h; B. subtilis ATCC 6633; agar dilution, Mueller-Hinton agar; read-out: Minimal Inhibitory Concentration (MIC)
In short: (§1)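 Inoculum of 10^6 CFU per ml was spotted onto Mueller-Hinton agar plates carrying two-fold compound dilutions. Plates were held at 35°-37° C. for 17±1 hours before the minimum inhibitory concentration was recorded.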

Staph. aureus ATCC 6538P = experiment: MIC by agar dilution, Staph. aureus ATCC 6538P; details: Staphylococcus aureus, ATCC6538P, 17 h; Staph. aureus ATCC 6538P; agar dilution, Mueller-Hinton agar; read-out: Minimal Inhibitory Concentration (MIC)
In short: as §1

Staph. aureus Smith = experiment: MIC by agar dilution, Staph. aureus Smith; details: Staphylococcus aureus, 17 h, Mueller-Hinton agar, read-out: Minimal Inhibitory Concentration (MIC)
In short: as §1

Staph. aureus C-57 = experiment: MIC by agar dilution, Staph. aureus C-57; details: Staphylococcus aureus, C57, 17 h, Mueller-Hinton agar, read-out: Minimal Inhibitory Concentration (MIC)
In short: as §1

Staph. aureus C-5113 = experiment: MIC by agar dilution, Staph. aureus C-5113; details: Staphylococcus aureus, C5113, 17 h, Mueller-Hinton agar, read-out: Minimal Inhibitory Concentration (MIC)
In short: as §1

Staph. aureus C-5216 = experiment: MIC by agar dilution, Staph. aureus C-5216; details: Staphylococcus aureus, C5216, 17 h, Mueller-Hinton agar, read-out: Minimal Inhibitory Concentration (MIC)
In short: as §1

[1] = tested on: S. epidermidis ATCC 12228; experiment: MIC by agar dilution, S. epidermidis ATCC 12228; details: Staphylococcus epidermidis, ATCC12228, 17 h; S. epidermidis ATCC 12228; agar dilution, Mueller-Hinton agar; read-out: Minimal Inhibitory Concentration (MIC)
In short: as §1

Ent. aerogenes IFO 12979 = experiment: MIC by agar dilution, Ent. aerogenes IFO 12979; details: Klebsiella aerogenes, IFO12979, 17 h, Mueller-Hinton agar, read-out: Minimal Inhibitory Concentration (MIC)
In short: as §1

Ent. cloacae IFO 13535 = experiment: MIC by agar dilution, Ent. cloacae IFO 13535; details: Enterobacter cloacae, IFO13535, 17 h; Ent. cloacae IFO 13535; agar dilution, Mueller-Hinton agar; read-out: Minimal Inhibitory Concentration (MIC)
In short: as §1

E. coli NIHJ JC-2 = experiment: MIC by agar dilution, E. coli NIHJ JC-2; details: Escherichia coli, NIHJJC2, 17 h; E. coli NIHJ JC-2; agar dilution, Mueller-Hinton agar; read-out: Minimal Inhibitory Concentration (MIC)
In short: as §1

E. coli No. 29 = experiment: MIC by agar dilution, E. coli No. 29; details: Escherichia coli, 17 h; E. coli No. 29; agar dilution, Mueller-Hinton agar; read-out: Minimal Inhibitory Concentration (MIC)
In short: as §1

E. coli DY-1 = experiment: MIC by agar dilution, E. coli DY-1; details: Escherichia coli, DY1, 17 h; E. coli DY-1; agar dilution, Mueller-Hinton agar; read-out: Minimal Inhibitory Concentration (MIC)
In short: as §1

K. pneumoniae NCTC 9632 = experiment: MIC by agar dilution, K. pneumoniae NCTC 9632; details: Klebsiella pneumoniae, NCTC9632, 17 h; K. pneumoniae NCTC 9632; agar dilution, Mueller-Hinton agar; read-out: Minimal Inhibitory Concentration (MIC)
In short: as §1

M. morganii DY-1 = experiment: MIC by agar dilution, M. morganii DY-1; details: Morganella morganii, DY1, 17 h; M. morganii DY-1; agar dilution, Mueller-Hinton agar; read-out: Minimal Inhibitory Concentration (MIC)
In short: as §1

[2] = tested on: Ps. aeruginosa ATCC 10145; experiment: MIC by agar dilution, Ps. aeruginosa ATCC 10145; details: Pseudomonas aeruginosa, ATCC10145, 17 h, Mueller-Hinton agar, read-out: Minimal Inhibitory Concentration (MIC)
In short: as §1

[3] = tested on: Ps. aeruginosa NCTC 10490; experiment: MIC by agar dilution, Ps. aeruginosa NCTC 10490; details: Pseudomonas aeruginosa, NCTC10490, 17 h, Mueller-Hinton agar, read-out: Minimal Inhibitory Concentration (MIC)
In short: as §1

Ps. aeruginosa DY-2 = experiment: MIC by agar dilution, Ps. aeruginosa DY-2; details: Pseudomonas aeruginosa, DY2, 17 h; Ps. aeruginosa DY-2; agar dilution, Mueller-Hinton agar; read-out: Minimal Inhibitory Concentration (MIC)
In short: as §1

P. vulgaris NCTC 8313 = experiment: MIC by agar dilution, P. vulgaris NCTC 8313; details: Proteus vulgaris, NCTC8313, 17 h; P. vulgaris NCTC 8313; agar dilution, Mueller-Hinton agar; read-out: Minimal Inhibitory Concentration (MIC)
In short: as §1

Prov. stuartii IFO 12930 = experiment: MIC by agar dilution, Prov. stuartii IFO 12930; details: Providencia stuartii, IFO12930, 17 h, Mueller-Hinton agar, read-out: Minimal Inhibitory Concentration (MIC)
In short: as §1

[4] = tested on: Ser. marcescens IFO 12648; experiment: MIC by agar dilution, Ser. marcescens IFO 12648; details: Serratia marcescens, IFO12648, 17 h; Ser. marcescens IFO 12648; agar dilution, Mueller-Hinton agar; read-out: Minimal Inhibitory Concentration (MIC)
In short: as §1

SMILES	MIC (B. subtilis ATCC 6633)	MIC (Staph. aureus ATCC 6538P)	MIC (Staph. aureus Smith)	MIC (Staph. aureus C-57)	MIC (Staph. aureus C-5113)	MIC (Staph. aureus C-5216)	MIC [1]	MIC (Ent. aerogenes IFO 12979)	MIC (Ent. cloacae IFO 13535)	MIC (E. coli NIHJ JC-2)	MIC (E. coli No. 29)	MIC (E. coli DY-1)	MIC (K. pneumoniae NCTC 9632)	MIC (M. morganii DY-1)	MIC [2]	MIC [3]	MIC (Ps. aeruginosa DY-2)	MIC (P. vulgaris NCTC 8313)	MIC (Prov. stuartii IFO 12930)	MIC [4]
CCON=C(C(=O)NC1C(=O)N2C(C(=O)[O-])=C(C[n+]3ccn4c(SCCO)ccc4c3)CSC12)c1csc(N)n1 (stereo not drawn) [Ex. 9, 7-β-[(Z)-2-(2-aminothiazol-4-yl)-2-ethoxyiminoacetamido]-3-[6-(2-HYDROXYETHYLTHIO)PYRROLO[1,2-a]pyrazinium-2-yl]methyl-3-cephem-4-carboxylate]	0.1 µg/mL (≈ 0.166 µM)	0.1 µg/mL (≈ 0.166 µM)	0.1 µg/mL (≈ 0.166 µM)	12.5 µg/mL (≈ 20.7 µM)	0.39 µg/mL (≈ 0.646 µM)	0.78 µg/mL (≈ 1.29 µM)	0.05 µg/mL (≈ 0.0828 µM)	0.05 µg/mL (≈ 0.0828 µM)	0.2 µg/mL (≈ 0.331 µM)	0.025 µg/mL (≈ 0.0414 µM)	≤ 0.006 µg/mL	≤ 0.006 µg/mL	0.025 µg/mL (≈ 0.0414 µM)	0.012 µg/mL (≈ 0.0199 µM)	3.13 µg/mL (≈ 5.18 µM)	0.2 µg/mL (≈ 0.331 µM)	3.13 µg/mL (≈ 5.18 µM)	≤ 0.006 µg/mL	0.025 µg/mL (≈ 0.0414 µM)	0.05 µg/mL (≈ 0.0828 µM)
CO/N=C(\C(=O)N[C@@H]1C(=O)N2C(C(=O)[O-])=C(C[n+]3ccn4c(CO)ccc4c3C)CS[C@H]12)c1nc(N)sc1Cl [Ex. 58, 7-β-[(Z)-2-(2-amino-5-chlorothiazol-4-yl)-2-methoxyiminoacetamido]-3-(6-hydroxymethyl-1-methylpyrrolo[1,2-a]-pyrazinium-2-yl)methyl-3-cephem-4-carboxylate]	0.2 µg/mL (≈ 0.338 µM)	0.05 µg/mL (≈ 0.0845 µM)	0.39 µg/mL (≈ 0.659 µM)	3.13 µg/mL (≈ 5.29 µM)	0.78 µg/mL (≈ 1.32 µM)	0.78 µg/mL (≈ 1.32 µM)	0.1 µg/mL (≈ 0.169 µM)	0.1 µg/mL (≈ 0.169 µM)	0.78 µg/mL (≈ 1.32 µM)	0.2 µg/mL (≈ 0.338 µM)	0.05 µg/mL (≈ 0.0845 µM)	0.05 µg/mL (≈ 0.0845 µM)	0.1 µg/mL (≈ 0.169 µM)	0.39 µg/mL (≈ 0.659 µM)	1.56 µg/mL (≈ 2.63 µM)	0.78 µg/mL (≈ 1.32 µM)	3.13 µg/mL (≈ 5.29 µM)	0.012 µg/mL (≈ 0.0203 µM)	0.012 µg/mL (≈ 0.0203 µM)	0.2 µg/mL (≈ 0.338 µM)
CCON=C(C(=O)NC1C(=O)N2C(C(=O)[O-])=C(C[n+]3ccn4cccc4c3)CSC12)c1csc(N)n1 (stereo not drawn) [Ex. 3, 7-β-[(Z)-2-(2-aminothiazol-4-yl)-2-ethoxyiminoacetamido]-3-(pyrrolo[1,2-a]pyrazinium-2-yl)methyl-3-cephem-4-carboxylate]	0.1 µg/mL (≈ 0.19 µM)	0.1 µg/mL (≈ 0.19 µM)	0.39 µg/mL (≈ 0.739 µM)	6.25 µg/mL (≈ 11.8 µM)	0.39 µg/mL (≈ 0.739 µM)	0.39 µg/mL (≈ 0.739 µM)	0.025 µg/mL (≈ 0.0474 µM)	0.012 µg/mL (≈ 0.0227 µM)	0.2 µg/mL (≈ 0.379 µM)	0.025 µg/mL (≈ 0.0474 µM)	≤ 0.006 µg/mL	≤ 0.006 µg/mL	≤ 0.006 µg/mL	≤ 0.006 µg/mL	0.2 µg/mL (≈ 0.379 µM)	0.2 µg/mL (≈ 0.379 µM)	0.78 µg/mL (≈ 1.48 µM)	≤ 0.006 µg/mL	0.012 µg/mL (≈ 0.0227 µM)	≤ 0.006 µg/mL
CCON=C(C(=O)NC1C(=O)N2C(C(=O)[O-])=C(C[n+]3ccn4ccc(CO)c4c3)CSC12)c1csc(N)n1 (stereo not drawn) [Ex. 31, 7-β-[(Z)-2-(2-aminothiazol-4-yl)2-ethoxyiminoacetamido]-3-(8-hydroxymethylpyrrolo[1,2-a]pyrazinium-2-yl)methyl-3-cephem-4-carboxylate]	0.1 µg/mL (≈ 0.179 µM)	0.2 µg/mL (≈ 0.359 µM)	1.56 µg/mL (≈ 2.8 µM)	25 µg/mL (≈ 44.8 µM)	6.25 µg/mL (≈ 11.2 µM)	3.13 µg/mL (≈ 5.61 µM)	0.2 µg/mL (≈ 0.359 µM)	0.025 µg/mL (≈ 0.0448 µM)	0.2 µg/mL (≈ 0.359 µM)	0.05 µg/mL (≈ 0.0897 µM)	0.012 µg/mL (≈ 0.0215 µM)	≤ 0.006 µg/mL	0.05 µg/mL (≈ 0.0897 µM)	0.025 µg/mL (≈ 0.0448 µM)	1.56 µg/mL (≈ 2.8 µM)	0.78 µg/mL (≈ 1.4 µM)	3.13 µg/mL (≈ 5.61 µM)	0.012 µg/mL (≈ 0.0215 µM)	0.025 µg/mL (≈ 0.0448 µM)	0.05 µg/mL (≈ 0.0897 µM)
